IC50 and MIC data for 14 compounds are collected here from ChEMBL document CHEMBL3865781, “Recent advances in the discovery and development of antibacterial agents targeting the cell-division protein FtsZ” (Bioorg Med Chem, 2016).

Each structure is given as a SMILES string. ≈ marks a conversion by molar mass, not a printed value.

Experiment [1] in a line: Inhibition of Escherichia coli FtsZ polymerization expressed in Escherichia coli BL21 assessed as reduction in light scattering intensity in presence of GTP by fluorescence spectrometric analysis.
The subject of a further experiment is Klebsiella pneumoniae. Nature of the experiment: Antibacterial activity against Klebsiella pneumoniae ATCC BAA-1144 after 18 hrs by broth microdilution method. Format: functional. As to conditions: ATCC BAA-1144, 18 h.
For experiment [2], the system named is Staphylococcus aureus. As to the kind of experiment: Antibacterial activity against methicillin-resistant Staphylococcus aureus ATCC BAA-41 after 18 hrs by broth microdilution method. Format: functional. To be noted: ATCC BAA-41, 18 h. A general note: Broth dilution looks for growth in wells or tubes with falling amounts of substance.
Another experiment has as its system Escherichia coli. As to the kind of experiment: Antibacterial activity against Escherichia coli ATCC 25922 after 18 hrs by broth microdilution method. As to conditions: ATCC 25922, 18 h. Format: functional.
Experiment [3] deals with Staphylococcus aureus. As to the kind of experiment: Antibacterial activity against methicillin-sensitive Staphylococcus aureus after 18 hrs by broth microdilution method. Format: functional.
A further experiment relates to Enterococcus faecalis. As to the kind of experiment: Antimicrobial activity against vancomycin-sensitive Enterococcus faecalis after 18 hrs by broth microdilution method. In kind it is functional.

Regarding `COc1cc(OC)c(OC)cc1/C=C/C(=O)O`, in experiment [1], the IC50 is 149 µM. In addition, the minimum inhibitory concentration (MIC) lay in the range of 32 to 128 µg/mL (≈ 134 to 537 µM) with Klebsiella pneumoniae; 2 to 8 µg/mL (≈ 8.39 to 33.6 µM) against Staphylococcus aureus [2]; 32 to 128 µg/mL (≈ 134 to 537 µM) against Escherichia coli; 2 to 8 µg/mL (≈ 8.39 to 33.6 µM) in the experiment on Staphylococcus aureus [3]; 4 to 16 µg/mL (≈ 16.8 to 67.2 µM) against Enterococcus faecalis.

For the compound `Cc1nc2ccccc2n1C(=O)/C=C/c1ccc(F)cc1`, the MIC against Klebsiella pneumoniae lay within 32 to 128 µg/mL (≈ 114 to 457 µM); in the experiment on Staphylococcus aureus [2], 2 to 8 µg/mL (≈ 7.14 to 28.5 µM); with Escherichia coli, 32 to 128 µg/mL (≈ 114 to 457 µM); against Staphylococcus aureus [3], 2 to 8 µg/mL (≈ 7.14 to 28.5 µM); against Enterococcus faecalis, 4 to 16 µg/mL (≈ 14.3 to 57.1 µM).

As to `COc1cc(C/C=C(/Cl)Cc2cc(O)cc(O)c2)c(OC)cc1Cl`, the minimal inhibitory concentration (MIC) against Klebsiella pneumoniae lay in the range of 32 to 128 µg/mL (≈ 86.7 to 347 µM); against Staphylococcus aureus [2], 2 to 8 µg/mL (≈ 5.42 to 21.7 µM); against Escherichia coli it was 32 to 128 µg/mL (≈ 86.7 to 347 µM); against Staphylococcus aureus [3], 2 to 8 µg/mL (≈ 5.42 to 21.7 µM); with Enterococcus faecalis it was 4 to 16 µg/mL (≈ 10.8 to 43.3 µM).

For `COc1cc2cc3c4cc(-c5ccc(-c6ccccc6)cc5)c(OC)c(OC)c4cc[n+]3c(C(C)C)c2cc1OC`, the MIC against Klebsiella pneumoniae lay within 32 to 128 µg/mL; in the experiment with Staphylococcus aureus [2], 2 to 8 µg/mL; against Escherichia coli it was 32 to 128 µg/mL; in the experiment with Staphylococcus aureus [3], 2 to 8 µg/mL; in the experiment with Enterococcus faecalis, 4 to 16 µg/mL.

Consider `COc1cc(/C=C/C(=O)O)ccc1O` [FERULATE], for which the MIC is 32 to 128 µg/mL (≈ 165 to 659 µM) against Klebsiella pneumoniae; 2 to 8 µg/mL (≈ 10.3 to 41.2 µM) against Staphylococcus aureus [2]; 32 to 128 µg/mL (≈ 165 to 659 µM) in the experiment with Escherichia coli; 2 to 8 µg/mL (≈ 10.3 to 41.2 µM) in the experiment on Staphylococcus aureus [3]; 4 to 16 µg/mL (≈ 20.6 to 82.4 µM) in the experiment on Enterococcus faecalis.

In the case of `Oc1ccc(/C=C/c2cc(O)cc(O)c2)cc1` [RESVERATROL], the MIC is 32 to 128 µg/mL (≈ 140 to 561 µM) in the experiment with Klebsiella pneumoniae; 2 to 8 µg/mL (≈ 8.76 to 35 µM) in the experiment with Staphylococcus aureus [2]; 32 to 128 µg/mL (≈ 140 to 561 µM) against Escherichia coli; 2 to 8 µg/mL (≈ 8.76 to 35 µM) against Staphylococcus aureus [3]; 4 to 16 µg/mL (≈ 17.5 to 70.1 µM) against Enterococcus faecalis.

Consider `COc1ccc(/C=C/C(=O)O)cc1OC` [O,O'-DIMETHYLCAFFEIC ACID], for which the half-inhibitory concentration (IC50) in experiment [1] is over 250 µM. Also, the MIC in the experiment on Klebsiella pneumoniae was 32 to 128 µg/mL (≈ 154 to 615 µM); in the experiment on Staphylococcus aureus [2], 2 to 8 µg/mL (≈ 9.61 to 38.4 µM); against Escherichia coli it was 32 to 128 µg/mL (≈ 154 to 615 µM); with Staphylococcus aureus [3] it was 2 to 8 µg/mL (≈ 9.61 to 38.4 µM); in the experiment on Enterococcus faecalis it was 4 to 16 µg/mL (≈ 19.2 to 76.8 µM).

As for `Cc1nc2ccccc2n1C(=O)/C=C/c1ccc(Cl)cc1Cl`, the minimal inhibitory concentration (MIC) with Klebsiella pneumoniae lay in the range of 32 to 128 µg/mL (≈ 96.6 to 386 µM); against Staphylococcus aureus [2], 2 to 8 µg/mL (≈ 6.04 to 24.2 µM); against Escherichia coli it was 32 to 128 µg/mL (≈ 96.6 to 386 µM); with Staphylococcus aureus [3] it was 2 to 8 µg/mL (≈ 6.04 to 24.2 µM); with Enterococcus faecalis, 4 to 16 µg/mL (≈ 12.1 to 48.3 µM).

On to `O=C(O)/C=C/c1ccc(O)cc1` [COUMARIC ACID], for which, in experiment [1], the concentration for half-maximal inhibition (IC50) was determined as 190 µM. Also, the MIC against Klebsiella pneumoniae lay within 32 to 128 µg/mL (≈ 195 to 780 µM); against Staphylococcus aureus [2] it was 2 to 8 µg/mL (≈ 12.2 to 48.7 µM); in the experiment on Escherichia coli, 32 to 128 µg/mL (≈ 195 to 780 µM); against Staphylococcus aureus [3] it was 2 to 8 µg/mL (≈ 12.2 to 48.7 µM); in the experiment on Enterococcus faecalis, 4 to 16 µg/mL (≈ 24.4 to 97.5 µM).

As for `O=C(/C=C/c1ccc(O)c(O)c1)O[C@@H]1C[C@](O)(C(=O)O)C[C@@H](O)[C@H]1O` [CHLOROGENIC ACID], in experiment [1], the IC50 stood at 69.5 µM. Besides, the minimum inhibitory concentration (MIC) in the experiment with Klebsiella pneumoniae fell in the range of 32 to 128 µg/mL (≈ 90.3 to 361 µM); in the experiment with Staphylococcus aureus [2], 2 to 8 µg/mL (≈ 5.64 to 22.6 µM); in the experiment with Escherichia coli, 32 to 128 µg/mL (≈ 90.3 to 361 µM); in the experiment on Staphylococcus aureus [3], 2 to 8 µg/mL (≈ 5.64 to 22.6 µM); in the experiment on Enterococcus faecalis, 4 to 16 µg/mL (≈ 11.3 to 45.2 µM).

Take `O=c1ccc2ccccc2o1` [COUMARIN]: the minimal inhibitory concentration (MIC) is 32 to 128 µg/mL (≈ 219 to 876 µM) in the experiment with Klebsiella pneumoniae; 2 to 8 µg/mL (≈ 13.7 to 54.7 µM) in the experiment with Staphylococcus aureus [2]; 32 to 128 µg/mL (≈ 219 to 876 µM) in the experiment with Escherichia coli; 2 to 8 µg/mL (≈ 13.7 to 54.7 µM) against Staphylococcus aureus [3]; 4 to 16 µg/mL (≈ 27.4 to 109 µM) in the experiment with Enterococcus faecalis.

Turning to `O=C(O)/C=C/c1ccc(O)c(O)c1` [CAFFEIC ACID], the IC50 in experiment [1] is 106 µM. The MIC against Klebsiella pneumoniae was 32 to 128 µg/mL (≈ 178 to 710 µM); in the experiment on Staphylococcus aureus [2], 2 to 8 µg/mL (≈ 11.1 to 44.4 µM); against Escherichia coli, 32 to 128 µg/mL (≈ 178 to 710 µM); against Staphylococcus aureus [3], 2 to 8 µg/mL (≈ 11.1 to 44.4 µM); in the experiment with Enterococcus faecalis, 4 to 16 µg/mL (≈ 22.2 to 88.8 µM).

Turning to `O=C(O)/C=C/c1ccccc1` [CINNAMIC ACID], the 50% inhibitory concentration (IC50) in experiment [1] turned out to be 239 µM. Further, the minimum inhibitory concentration (MIC) fell in the range of 32 to 128 µg/mL (≈ 216 to 864 µM) in the experiment on Klebsiella pneumoniae; 2 to 8 µg/mL (≈ 13.5 to 54 µM) with Staphylococcus aureus [2]; 32 to 128 µg/mL (≈ 216 to 864 µM) in the experiment with Escherichia coli; 2 to 8 µg/mL (≈ 13.5 to 54 µM) with Staphylococcus aureus [3]; 4 to 16 µg/mL (≈ 27 to 108 µM) in the experiment with Enterococcus faecalis.

Consider `Oc1cc(O)c2c(c1)C/C(Cl)=C\Cc1cc(c(Cl)cc1O)Oc1c(O)cc(cc1O)C/C(Cl)=C\Cc1cc(c(Cl)cc1O)O2`, for which the MIC against Klebsiella pneumoniae was 32 to 128 µg/mL (≈ 47.2 to 189 µM); against Staphylococcus aureus [2] it was 2 to 8 µg/mL (≈ 2.95 to 11.8 µM); against Escherichia coli, 32 to 128 µg/mL (≈ 47.2 to 189 µM); in the experiment on Staphylococcus aureus [3], 2 to 8 µg/mL (≈ 2.95 to 11.8 µM); against Enterococcus faecalis, 4 to 16 µg/mL (≈ 5.9 to 23.6 µM).

As a reminder, the IC50 is the concentration at which inhibition is half-maximal. What is called MIC is the lowest concentration that inhibits growth of the organism. A high value points to a need for much substance.
